{"source": "ChEMBL document CHEMBL5113440", "about": "“Optimization of clofibrate with O-desmethyl anetholtrithione lead to a novel hypolipidemia compound with hepatoprotective effect” (Bioorg Med Chem Lett, 2022)", "key": {"[1]": {"experiment": "Toxicity in KM mouse assessed as reduction in body weight at 1.65 mmol/Kg, IG administered via gavage measured for 1 month", "settings": "in vivo, po, 730 h, time 1 months"}, "[2]": {"experiment": "Hepatotoxicity in KM mouse assessed as effect on liver weight at 1.65 mmol/Kg, IG administered via gavage measured for 1 month", "format": "toxicity, tissue-based", "settings": "in vivo, po, 730 h, time 1 months"}, "[3]": {"experiment": "Hepatotoxicity in KM mouse assessed as reduction in liver coefficient at 1.65 mmol/Kg, IG administered via gavage measured for 1 month", "format": "toxicity, tissue-based", "settings": "in vivo, po, 730 h, time 1 months"}, "[4]": {"experiment": "Hepatotoxicity in KM mouse assessed as reduction in plasma AST level at 1.65 mmol/Kg, IG administered via gavage measured for 1 month by automated biochemical analyzer", "format": "toxicity", "settings": "in vivo, po, 730 h, time 1 months"}, "[5]": {"experiment": "Hepatotoxicity in KM mouse assessed as reduction in plasma ALT level at 1.65 mmol/Kg, IG administered via gavage measured for 1 month by automated biochemical analyzer", "format": "toxicity", "settings": "in vivo, po, 730 h, time 1 months"}, "[6]": {"experiment": "Hepatotoxicity in KM mouse assessed as reduction in plasma ALP level at 1.65 mmol/Kg, IG administered via gavage measured for 1 month by automated biochemical analyzer", "format": "toxicity", "settings": "in vivo, po, 730 h, time 1 months"}, "[7]": {"experiment": "Hepatotoxicity in KM mouse assessed as reduction in total bilirubin level in plasma at 1.65 mmol/Kg, IG administered via gavage measured for 1 month by automated biochemical analyzer", "format": "toxicity", "settings": "po, 730 h, time 1 months"}, "[8]": {"tested_on": "Mus musculus", "experiment": "Induction of oxidative stress in KM mouse assessed as reduction in SOD level in plasma at 1.65 mmol/Kg, IG administered via gavage measured for 1 month", "format": "functional, organism-based", "settings": "time 1.0 months"}, "[9]": {"tested_on": "Mus musculus", "experiment": "Induction of oxidative stress in KM mouse assessed as reduction in CAT level in plasma at 1.65 mmol/Kg, IG administered via gavage measured for 1 month", "format": "functional, organism-based", "settings": "time 1.0 months"}, "[10]": {"tested_on": "Mus musculus", "experiment": "Induction of oxidative stress in KM mouse assessed as reduction in GSH level in plasma at 1.65 mmol/Kg, IG administered via gavage measured for 1 month", "format": "functional, organism-based", "settings": "time 1.0 months"}, "[11]": {"tested_on": "Mus musculus", "experiment": "Induction of oxidative stress in KM mouse assessed as increase in MDA level in plasma at 1.65 mmol/Kg, IG administered via gavage measured for 1 month", "format": "functional, organism-based", "settings": "time 1.0 months"}, "[12]": {"tested_on": "Mus musculus", "experiment": "Induction of inflammation in KM mouse assessed as upregulation of TNF-alpha expression in liver tissue at 1.65 mmol/Kg, IG administered via gavage measured for 1 month by Western blot analysis", "format": "functional", "settings": "time 1.0 months"}, "[13]": {"tested_on": "Mus musculus", "experiment": "Induction of inflammation in KM mouse assessed as upregulation of IL-6 expression in liver tissue at 1.65 mmol/Kg, IG administered via gavage measured for 1 month by Western blot analysis", "format": "functional", "settings": "time 1.0 months"}, "[14]": {"experiment": "Hepatotoxicity in KM mouse assessed as large areas of hepatocytes swelling at 1.65 mmol/Kg, IG administered via gavage by H and E staining based analysis", "format": "toxicity", "settings": "in vivo, po"}, "[15]": {"experiment": "Hepatotoxicity in KM mouse assessed as infiltration of inflammatory cells at 1.65 mmol/Kg, IG administered via gavage by H and E staining based analysis", "format": "toxicity", "settings": "in vivo, po"}, "[16]": {"experiment": "Hepatotoxicity in KM mouse assessed as nuclear degeneration at 1.65 mmol/Kg, IG administered via gavage by H and E staining based analysis", "format": "toxicity", "settings": "in vivo, po"}, "[17]": {"experiment": "Hepatotoxicity in KM mouse assessed as blurred edge dissolution at 1.65 mmol/Kg, IG administered via gavage by H and E staining based analysis", "format": "toxicity", "settings": "in vivo, po"}, "[18]": {"experiment": "Hepatotoxicity in KM mouse assessed as appearance of loose cytoplasm at 1.65 mmol/Kg, IG administered via gavage by H and E staining based analysis", "format": "toxicity", "settings": "in vivo, po"}, "[19]": {"tested_on": "Mus musculus", "experiment": "Upregulation of p-NF-kappaB p65 protein expression in liver of KM mouse at 1.65 mmol/Kg, IG administered via gavage measured after 1 month by Western blot analysis", "format": "functional", "settings": "time 1.0 months"}, "[20]": {"tested_on": "Mus musculus", "experiment": "Hypolipidemic activity in Triton-WR-1339 induced hyperlipidemic KM mouse model assessed as reduction in plasma TG level administered intragastrically via gavage for 7 days", "format": "functional, organism-based", "settings": "dose 0.029-0.267 mmol/Kg, route ig, time 7.0 day, DDE = dose-dependent effect"}, "[21]": {"tested_on": "Mus musculus", "experiment": "Hypolipidemic activity in Triton-WR-1339 induced hyperlipidemic KM mouse model assessed as reduction in plasma TC level administered intragastrically via gavage for 7 days", "format": "functional, organism-based", "settings": "dose 0.029-0.267 mmol/Kg, route ig, time 7.0 day, DDE = dose-dependent effect"}, "[22]": {"tested_on": "Mus musculus", "experiment": "Antioxidant activity in KM mouse assessed as increase in SOD level in plasma at 1.65 mmol/Kg, IG administered via gavage measured for 1 month", "format": "functional, organism-based", "settings": "time 1.0 months"}, "[23]": {"tested_on": "Mus musculus", "experiment": "Antioxidant activity in KM mouse assessed as increase in CAT level in plasma at 1.65 mmol/Kg, IG administered via gavage measured for 1 month", "format": "functional, organism-based", "settings": "time 1.0 months"}, "[24]": {"tested_on": "Mus musculus", "experiment": "Antioxidant activity in KM mouse assessed as increase in GSH level in plasma at 1.65 mmol/Kg, IG administered via gavage measured for 1 month", "format": "functional, organism-based", "settings": "time 1.0 months"}, "[25]": {"tested_on": "Mus musculus", "experiment": "Antioxidant activity in KM mouse assessed as reduction in MDA level in plasma at 1.65 mmol/Kg, IG administered via gavage measured for 1 month", "format": "functional, organism-based", "settings": "time 1.0 months"}, "[26]": {"tested_on": "Mus musculus", "experiment": "Antiinflammatory activity in KM mouse assessed as downregulation of TNF-alpha expression in liver tissue at 1.65 mmol/Kg, IG administered via gavage measured for 1 month by Western blot analysis", "format": "functional, organism-based", "settings": "time 1.0 months"}, "[27]": {"tested_on": "Mus musculus", "experiment": "Antiinflammatory activity in KM mouse assessed as downregulation of IL-6 expression in liver tissue at 1.65 mmol/Kg, IG administered via gavage measured for 1 month by Western blot analysis", "format": "functional, organism-based", "settings": "time 1.0 months"}, "[28]": {"tested_on": "Mus musculus", "experiment": "Hepatoprotective activity in KM mouse assessed as improvement in hepatocyte injury at 1.65 mmol/Kg, IG administered via gavage by H and E staining based analysis", "format": "functional, organism-based"}, "[29]": {"tested_on": "Mus musculus", "experiment": "Upregulation of Nrf2 protein expression in liver of KM mouse at 1.65 mmol/Kg, IG administered via gavage measured after 1 month by Western blot analysis", "format": "functional", "settings": "time 1.0 months"}, "[30]": {"tested_on": "Mus musculus", "experiment": "Upregulation of HO-1 protein expression in liver of KM mouse at 1.65 mmol/Kg, IG administered via gavage measured after 1 month by Western blot analysis", "format": "functional", "settings": "time 1.0 months"}, "[31]": {"tested_on": "Mus musculus", "experiment": "Downregulation of p-NF-kappaB p65 protein expression in liver of KM mouse at 1.65 mmol/Kg, IG administered via gavage measured after 1 month by Western blot analysis", "format": "functional", "settings": "time 1.0 months"}}, "note": "Active and inactive are the calls of the source. The calls are words filed in the database; no cut-off is given here.", "data": [{"smiles": "CCOC(=O)C(C)(C)Oc1ccc(Cl)cc1", "note": "[CLOFIBRATE]", "values": [{"measurement": "Activity", "setting": "[1]", "value": "Non-Toxic"}, {"measurement": "Activity", "setting": "[2]", "value": "Toxic"}, {"measurement": "Activity", "setting": "[3]", "value": "Toxic"}, {"measurement": "Activity", "setting": "[4]", "value": "Toxic"}, {"measurement": "Activity", "setting": "[5]", "value": "Toxic"}, {"measurement": "Activity", "setting": "[6]", "value": "Toxic"}, {"measurement": "Activity", "setting": "[7]", "value": "Toxic"}, {"measurement": "Activity", "setting": "[8]", "value": "Active"}, {"measurement": "Activity", "setting": "[9]", "value": "Active"}, {"measurement": "Activity", "setting": "[10]", "value": "Active"}, {"measurement": "Activity", "setting": "[11]", "value": "Active"}, {"measurement": "Activity", "setting": "[12]", "value": "Active"}, {"measurement": "Activity", "setting": "[13]", "value": "Active"}, {"measurement": "Activity", "setting": "[14]", "value": "Toxic"}, {"measurement": "Activity", "setting": "[15]", "value": "Toxic"}, {"measurement": "Activity", "setting": "[16]", "value": "Toxic"}, {"measurement": "Activity", "setting": "[17]", "value": "Toxic"}, {"measurement": "Activity", "setting": "[18]", "value": "Toxic"}, {"measurement": "Activity", "setting": "[19]", "value": "Active"}]}, {"smiles": "CC(C)(Oc1ccc(Cl)cc1)C(=O)Oc1ccc(-c2cc(=S)ss2)cc1", "values": [{"measurement": "Activity", "setting": "[20]", "value": "Dde"}, {"measurement": "Activity", "setting": "[21]", "value": "Dde"}, {"measurement": "Activity", "setting": "[1]", "value": "Non-Toxic"}, {"measurement": "Activity", "setting": "[2]", "value": "Non-Toxic"}, {"measurement": "Activity", "setting": "[3]", "value": "Non-Toxic"}, {"measurement": "Activity", "setting": "[4]", "value": "Non-Toxic"}, {"measurement": "Activity", "setting": "[5]", "value": "Non-Toxic"}, {"measurement": "Activity", "setting": "[6]", "value": "Non-Toxic"}, {"measurement": "Activity", "setting": "[7]", "value": "Non-Toxic"}, {"measurement": "Activity", "setting": "[22]", "value": "Active"}, {"measurement": "Activity", "setting": "[23]", "value": "Active"}, {"measurement": "Activity", "setting": "[24]", "value": "Active"}, {"measurement": "Activity", "setting": "[25]", "value": "Active"}, {"measurement": "Activity", "setting": "[26]", "value": "Active"}, {"measurement": "Activity", "setting": "[27]", "value": "Active"}, {"measurement": "Activity", "setting": "[15]", "value": "Non-Toxic"}, {"measurement": "Activity", "setting": "[16]", "value": "Non-Toxic"}, {"measurement": "Activity", "setting": "[18]", "value": "Non-Toxic"}, {"measurement": "Activity", "setting": "[28]", "value": "Active"}, {"measurement": "Activity", "setting": "[29]", "value": "Active"}, {"measurement": "Activity", "setting": "[30]", "value": "Active"}, {"measurement": "Activity", "setting": "[31]", "value": "Active"}]}]}
